One block for each molecule: values may come before it.
Test system: 475296-252-R-J1-PDC spheroid viability
Assay: Anticancer human tumor 475296-252-R-J1-PDC patient-derived rectal carcinoma cell line growth inhibition [PI3K]
Details: spheroids with HUVEC and MSC; for IC50: curve of first compound; for viability, T/C: stronger effect = lower value
How it was run: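 Combination activity was assessed by viability in multicellular tumor spheroids carrying HUVEC and MSC components. Agents were tested with PI3K inhibitors from a Cmax-based top dose (or 10 microM) downward in half-log increments.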

[1] = second compound 0.0316 µM, first compound 0.0316 µM
[2] = second compound 0.0316 µM, first compound 0.1 µM
[3] = second compound 0.0316 µM, first compound 0.316 µM
[4] = second compound 0.0316 µM, first compound 1 µM
[5] = second compound 0.0316 µM, first compound 3.16 µM
[6] = second compound 0.0316 µM, first compound 10 µM
[7] = second compound 0.1 µM, first compound 0.0316 µM
[8] = second compound 0.1 µM, first compound 0.1 µM
[9] = second compound 0.1 µM, first compound 0.316 µM
[10] = second compound 0.1 µM, first compound 1 µM
[11] = second compound 0.1 µM, first compound 3.16 µM
[12] = second compound 0.1 µM, first compound 10 µM
[13] = second compound 0.316 µM, first compound 0.0316 µM
[14] = second compound 0.316 µM, first compound 0.1 µM
[15] = second compound 0.316 µM, first compound 0.316 µM
[16] = second compound 0.316 µM, first compound 1 µM
[17] = second compound 0.316 µM, first compound 3.16 µM
[18] = second compound 0.316 µM, first compound 10 µM
[19] = second compound 1 µM, first compound 0.0316 µM
[20] = second compound 1 µM, first compound 0.1 µM
[21] = second compound 1 µM, first compound 0.316 µM
[22] = second compound 1 µM, first compound 1 µM
[23] = second compound 1 µM, first compound 3.16 µM
[24] = second compound 1 µM, first compound 10 µM
[25] = second compound 3.16 µM, first compound 0.0316 µM
[26] = second compound 3.16 µM, first compound 0.1 µM
[27] = second compound 3.16 µM, first compound 0.316 µM
[28] = second compound 3.16 µM, first compound 1 µM
[29] = second compound 3.16 µM, first compound 3.16 µM
[30] = second compound 3.16 µM, first compound 10 µM
[31] = second compound 10 µM, first compound 0.0316 µM
[32] = second compound 10 µM, first compound 0.1 µM
[33] = second compound 10 µM, first compound 0.316 µM
[34] = second compound 10 µM, first compound 1 µM
[35] = second compound 10 µM, first compound 3.16 µM
[36] = second compound 10 µM, first compound 10 µM
[37] = second compound 0.0316 µM, first compound 0.00316 µM
[38] = second compound 0.0316 µM, first compound 0.01 µM
[39] = second compound 0.1 µM, first compound 0.00316 µM
[40] = second compound 0.1 µM, first compound 0.01 µM
[41] = second compound 0.316 µM, first compound 0.00316 µM
[42] = second compound 0.316 µM, first compound 0.01 µM
[43] = second compound 1 µM, first compound 0.00316 µM
[44] = second compound 1 µM, first compound 0.01 µM
[45] = second compound 3.16 µM, first compound 0.00316 µM
[46] = second compound 3.16 µM, first compound 0.01 µM
[47] = second compound 10 µM, first compound 0.00316 µM
[48] = second compound 10 µM, first compound 0.01 µM
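Note: spheroids exposed to agents for seven days before readout.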

- IC50 (second compound 0.0316 µM): > 10 µM
- IC50 (second compound 0.1 µM): > 10 µM
- IC50 (second compound 0.316 µM): > 10 µM
- IC50 (second compound 1 µM): > 10 µM
- IC50 (second compound 3.16 µM): > 10 µM
- IC50 (second compound 10 µM): > 10 µM
SMILES: CC(C)NCC(C(=O)N1CCN(c2ncnc3c2C(C)CC3O)CC1)c1ccc(Cl)cc1 (stereo not drawn) + Cc1nc(NC(=O)N2CCCC2C(N)=O)sc1-c1ccnc(C(C)(C)C(F)(F)F)c1
- viability, T/C [1]: 98%
- viability, T/C [2]: 90.3%
- viability, T/C [3]: 92%
- viability, T/C [4]: 89.3%
- viability, T/C [5]: 78.9%
- viability, T/C [6]: 70.3%
- viability, T/C [7]: 89.4%
- viability, T/C [8]: 93.3%
- viability, T/C [9]: 92.7%
- viability, T/C [10]: 80.3%
- viability, T/C [11]: 62.4%
- viability, T/C [12]: 58.2%
- viability, T/C [13]: 93.2%
- viability, T/C [14]: 95.1%
- viability, T/C [15]: 88.3%
- viability, T/C [16]: 92.5%
- viability, T/C [17]: 68.3%
- viability, T/C [18]: 58.9%
- viability, T/C [19]: 85%
- viability, T/C [20]: 92.7%
- viability, T/C [21]: 88.2%
- viability, T/C [22]: 90%
- viability, T/C [23]: 81.3%
- viability, T/C [24]: 58.7%
- viability, T/C [25]: 82.5%
- viability, T/C [26]: 96.6%
- viability, T/C [27]: 88.8%
- viability, T/C [28]: 89.4%
- viability, T/C [29]: 77.7%
- viability, T/C [30]: 65.8%
- viability, T/C [31]: 96%
- viability, T/C [32]: 81.3%
- viability, T/C [33]: 89.3%
- viability, T/C [34]: 85%
- viability, T/C [35]: 77.2%
- viability, T/C [36]: 64.3%

- IC50 (second compound 0.0316 µM): > 1 µM
- IC50 (second compound 0.1 µM): > 1 µM
- IC50 (second compound 0.316 µM): > 1 µM
- IC50 (second compound 1 µM): > 1 µM
- IC50 (second compound 3.16 µM): > 1 µM
- IC50 (second compound 10 µM): > 1 µM
SMILES: CCN1CCN(Cc2ccc(Nc3ncc(F)c(-c4cc(F)c5nc(C)n(C(C)C)c5c4)n3)nc2)CC1 + Cc1nc(NC(=O)N2CCCC2C(N)=O)sc1-c1ccnc(C(C)(C)C(F)(F)F)c1
- viability, T/C [37]: 95.8%
- viability, T/C [38]: 93.4%
- viability, T/C [1]: 107%
- viability, T/C [2]: 90%
- viability, T/C [3]: 114%
- viability, T/C [4]: 104%
- viability, T/C [39]: 95.8%
- viability, T/C [40]: 97.8%
- viability, T/C [7]: 112%
- viability, T/C [8]: 90.4%
- viability, T/C [9]: 98.8%
- viability, T/C [10]: 84.3%
- viability, T/C [41]: 107%
- viability, T/C [42]: 105%
- viability, T/C [13]: 87.6%
- viability, T/C [14]: 99.4%
- viability, T/C [15]: 98%
- viability, T/C [16]: 88.6%
- viability, T/C [43]: 81.4%
- viability, T/C [44]: 90.5%
- viability, T/C [19]: 98.7%
- viability, T/C [20]: 88.5%
- viability, T/C [21]: 89.2%
- viability, T/C [22]: 87.7%
- viability, T/C [45]: 98.2%
- viability, T/C [46]: 108%
- viability, T/C [25]: 82.5%
- viability, T/C [26]: 95%
- viability, T/C [27]: 90.7%
- viability, T/C [28]: 73.1%
- viability, T/C [47]: 93.3%
- viability, T/C [48]: 88.3%
- viability, T/C [31]: 96.7%
- viability, T/C [32]: 81.1%
- viability, T/C [33]: 90.4%
- viability, T/C [34]: 70.4%

- IC50 (second compound 0.0316 µM): > 10 µM
- IC50 (second compound 0.1 µM): > 10 µM
- IC50 (second compound 0.316 µM): > 10 µM
- IC50 (second compound 1 µM): > 10 µM
- IC50 (second compound 3.16 µM): > 10 µM
- IC50 (second compound 10 µM): 7.71 µM
SMILES: C[C@@H](NC(=O)c1ncnc(N)c1Cl)c1ncc(C(=O)Nc2cc(C(F)(F)F)c(Cl)cn2)s1 + Cc1nc(NC(=O)N2CCCC2C(N)=O)sc1-c1ccnc(C(C)(C)C(F)(F)F)c1
- viability, T/C [1]: 97.3%
- viability, T/C [2]: 82.2%
- viability, T/C [3]: 98.4%
- viability, T/C [4]: 97.1%
- viability, T/C [5]: 104%
- viability, T/C [6]: 84.1%
- viability, T/C [7]: 88.8%
- viability, T/C [8]: 85.3%
- viability, T/C [9]: 109%
- viability, T/C [10]: 91.7%
- viability, T/C [11]: 100%
- viability, T/C [12]: 95.4%
- viability, T/C [13]: 87.7%
- viability, T/C [14]: 90.5%
- viability, T/C [15]: 97%
- viability, T/C [16]: 98.9%
- viability, T/C [17]: 95.6%
- viability, T/C [18]: 79.9%
- viability, T/C [19]: 82.6%
- viability, T/C [20]: 93.7%
- viability, T/C [21]: 101%
- viability, T/C [22]: 101%
- viability, T/C [23]: 84.9%
- viability, T/C [24]: 63%
- viability, T/C [25]: 86.2%
- viability, T/C [26]: 79.4%
- viability, T/C [27]: 93.4%
- viability, T/C [28]: 75.9%
- viability, T/C [29]: 79.6%
- viability, T/C [30]: 70.5%
- viability, T/C [31]: 86.6%
- viability, T/C [32]: 77%
- viability, T/C [33]: 79.5%
- viability, T/C [34]: 69.1%
- viability, T/C [35]: 66.8%
- viability, T/C [36]: 45%

- IC50 (second compound 0.0316 µM): > 0.1 µM
- IC50 (second compound 0.1 µM): > 0.1 µM
- IC50 (second compound 0.316 µM): > 0.1 µM
- IC50 (second compound 1 µM): > 0.1 µM
- IC50 (second compound 3.16 µM): > 0.1 µM
- IC50 (second compound 10 µM): > 0.1 µM
SMILES: Cn1ncnc1[C@H]1c2n[nH]c(=O)c3cc(F)cc(c23)N[C@@H]1c1ccc(F)cc1 + Cc1nc(NC(=O)N2CCCC2C(N)=O)sc1-c1ccnc(C(C)(C)C(F)(F)F)c1
- viability, T/C (second compound 0.0316 µM, first compound 0.000316 µM): 104%
- viability, T/C (second compound 0.0316 µM, first compound 0.001 µM): 88.4%
- viability, T/C [37]: 106%
- viability, T/C [38]: 87.1%
- viability, T/C [1]: 98.8%
- viability, T/C [2]: 101%
- viability, T/C (second compound 0.1 µM, first compound 0.000316 µM): 92%
- viability, T/C (second compound 0.1 µM, first compound 0.001 µM): 87.1%
- viability, T/C [39]: 94.7%
- viability, T/C [40]: 101%
- viability, T/C [7]: 110%
- viability, T/C [8]: 103%
- viability, T/C (second compound 0.316 µM, first compound 0.000316 µM): 89.7%
- viability, T/C (second compound 0.316 µM, first compound 0.001 µM): 92.4%
- viability, T/C [41]: 88.9%
- viability, T/C [42]: 99.6%
- viability, T/C [13]: 105%
- viability, T/C [14]: 90.8%
- viability, T/C (second compound 1 µM, first compound 0.000316 µM): 91.3%
- viability, T/C (second compound 1 µM, first compound 0.001 µM): 99.5%
- viability, T/C [43]: 101%
- viability, T/C [44]: 91.7%
- viability, T/C [19]: 92.6%
- viability, T/C [20]: 104%
- viability, T/C (second compound 3.16 µM, first compound 0.000316 µM): 85.8%
- viability, T/C (second compound 3.16 µM, first compound 0.001 µM): 90%
- viability, T/C [45]: 91.5%
- viability, T/C [46]: 87.7%
- viability, T/C [25]: 87.7%
- viability, T/C [26]: 88.6%
- viability, T/C (second compound 10 µM, first compound 0.000316 µM): 91.7%
- viability, T/C (second compound 10 µM, first compound 0.001 µM): 92.1%
- viability, T/C [47]: 84.7%
- viability, T/C [48]: 83.3%
- viability, T/C [31]: 91.3%
- viability, T/C [32]: 84.6%

Source: PubChem BioAssay AID1963980 (Molecular Pharmacology Branch, DTP, NCI, 2024)
